# From patent US20230101747A1 (Schrödinger, Inc., priority 2019, published 2023)
# Molecular target: T1, Full length human CDC7 protein co-expressed with DBF4 (Homo sapiens, UniProt O00311)
# T1 construct: Full length human CDC7 protein co-expressed with DBF4; purchased SignalChem (China)
# Assay: CDC7 kinase biochemical assay (ADP-Glo, PDKtide substrate)
# Settings: 0.1 nM CDC7/DBF4, 1 uM ATP, 10 uM PDKtide, 4 h; read-out: CDC7 ADP-Glo PDKtide IC50
# How it was run: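 ADP-Glo luminescence measured ADP made over a 4 h reaction of 0.1 nM CDC7/DBF4 (full-length human) with 10 uM PDKtide and 1 uM ATP. Buffer was 40 mM Tris pH 7.5 with 20 mM MgCl2, 0.1 mg/ml BSA, 50 uM DTT. Inhibition normalized to DMSO and positive-control inhibitor wells.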
# T1 sequence (O00311 whole entry): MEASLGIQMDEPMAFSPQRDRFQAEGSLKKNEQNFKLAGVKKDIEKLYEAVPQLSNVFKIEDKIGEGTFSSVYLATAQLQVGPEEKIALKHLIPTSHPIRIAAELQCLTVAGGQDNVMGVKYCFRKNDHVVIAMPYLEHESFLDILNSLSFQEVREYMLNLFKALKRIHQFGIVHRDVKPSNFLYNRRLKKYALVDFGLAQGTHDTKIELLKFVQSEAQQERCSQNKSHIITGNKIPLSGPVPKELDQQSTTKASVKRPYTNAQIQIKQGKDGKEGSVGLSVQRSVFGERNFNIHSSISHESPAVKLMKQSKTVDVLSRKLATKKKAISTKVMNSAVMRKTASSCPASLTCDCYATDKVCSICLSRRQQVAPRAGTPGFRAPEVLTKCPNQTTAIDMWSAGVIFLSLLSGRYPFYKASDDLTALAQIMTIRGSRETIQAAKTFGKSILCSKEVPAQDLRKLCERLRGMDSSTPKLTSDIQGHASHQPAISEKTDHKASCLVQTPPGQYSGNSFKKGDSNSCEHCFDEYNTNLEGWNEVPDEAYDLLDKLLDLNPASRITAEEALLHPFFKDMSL
# T1 sequence (Q9UBU7 whole entry partner): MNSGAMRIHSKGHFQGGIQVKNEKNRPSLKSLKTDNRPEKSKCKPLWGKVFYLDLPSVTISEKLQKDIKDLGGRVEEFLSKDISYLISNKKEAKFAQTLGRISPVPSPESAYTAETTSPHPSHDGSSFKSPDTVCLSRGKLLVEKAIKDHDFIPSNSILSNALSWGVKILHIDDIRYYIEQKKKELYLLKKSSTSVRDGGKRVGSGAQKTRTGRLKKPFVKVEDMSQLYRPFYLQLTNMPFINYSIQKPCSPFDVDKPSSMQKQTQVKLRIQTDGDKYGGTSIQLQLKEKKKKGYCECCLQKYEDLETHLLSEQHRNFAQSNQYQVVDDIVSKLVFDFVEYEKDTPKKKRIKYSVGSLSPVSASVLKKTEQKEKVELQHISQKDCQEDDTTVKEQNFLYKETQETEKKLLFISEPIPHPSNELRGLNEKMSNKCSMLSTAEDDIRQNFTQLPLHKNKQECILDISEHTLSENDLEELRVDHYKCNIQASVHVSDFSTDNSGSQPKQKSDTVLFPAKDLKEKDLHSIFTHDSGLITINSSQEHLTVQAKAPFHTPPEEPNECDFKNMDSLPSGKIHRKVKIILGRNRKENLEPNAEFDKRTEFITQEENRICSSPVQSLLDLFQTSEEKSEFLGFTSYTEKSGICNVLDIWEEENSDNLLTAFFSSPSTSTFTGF
row,IC50 [nM],Compound
1,1 to 10,"COC(=O)C[C@@H]1CNC(=O)c2sc(-c3cn[nH]c3)c3c2N1CCO3 [Compound 60, methyl (R)-2-(9-oxo-2-(1H-pyrazol-4-yl)-4,5,6,7,8,9-hexahydro-3-oxa-1-thia-5a,8-diazabenzo[cd]azulen-6-yl)acetate]"
2,< 1,"C[C@H]1CN2CC(F)(F)Cc3c(-c4cn[nH]c4)sc(c32)C(=O)N1 [Compound 101, (10S)-6,6-difluoro-10-methyl-3-(1H-pyrazol-4-yl)-2-thia-8,11-diazatricyclo[6.4.1.0^4,13]trideca-1(13),3-dien-12-one]"
3,1 to 10,"CC1(C)NC(=O)c2sc(-c3ccnc(N)c3)c3c2N1CCO3 [Compound 13, 2-(2-aminopyridin-4-yl)-6,6-dimethyl-4,5,6,7-tetrahydro-8H-3-oxa-1-thia-5a,7-diazaacenaphthylen-8-one]"
4,< 1,"CC(=O)NC[C@@H]1COc2c(-c3cn[nH]c3)sc3c2N1CCNC3=O [Compound 57, N-[[(7R)-12-oxo-3-(1H-pyrazol-4-yl)-5-oxa-2-thia-8,11-diazatricyclo[6.4.1.0^4,13]trideca-1(13),3-dien-7-yl]methyl]acetamide]"
5,< 1,"O=C1NC(C2CCCCO2)CN2CCCc3c(-c4cn[nH]c4)sc1c32 (single isomer, unassigned) [Compound 110]"
6,1 to 10,"COC(=O)[C@@H]1CN2C(=O)COc3c(-c4cn[nH]c4)sc(c32)C(=O)N1 [Compound 53, Methyl (S)-5,9-dioxo-2-(1H-pyrazol-4-yl)-4,5,6,7,8,9-hexahydro-3-oxa-1-thia-5a,8-diazabenzo[cd]azulene-7-carboxylate]"
7,1 to 10,"CC1(C)NC(=O)c2sc(-c3c[nH]c4ncc(Cl)cc34)c3c2N1CCO3 [Compound 10, 2-(5-chloro-1H-pyrrolo[2,3-b]pyridin-3-yl)-6,6-dimethyl-4,5,6,7-tetrahydro-8H-3-oxa-1-thia-5a,7-diazaacenaphthylen-8-one]"
8,1 to 10,"O=C1NC[C@H](CN2CCC2)N2CCOc3c(-c4cn[nH]c4)sc1c32 [Compound 36, (R)-6-(azetidin-1-ylmethyl)-2-(1H-pyrazol-4-yl)-4,5,7,8-tetrahydro-3-oxa-1-thia-5a,8-diazabenzo[cd]azulen-9(6H)-one]"
9,< 1,"Cc1ccnn1C[C@H]1CN2CCOc3c(-c4cn[nH]c4)sc(c32)C(=O)N1 [Compound 44, (R)-7-((5-methyl-1H-pyrazol-1-yl)methyl)-2-(1H-pyrazol-4-yl)-4,5,7,8-tetrahydro-3-oxa-1-thia-5a,8-diazabenzo[cd]azulen-9(6H)-one]"
10,< 1,"O=C1NC2(CCOCC2)CN2CCOc3c(-c4cn[nH]c4)sc1c32 [Compound 64, 2-(1H-pyrazol-4-yl)-2′,3′,4,5,5′,6′-hexahydro-6H-3-oxa-1-thia-5a,8-diazaspiro[benzo[cd]azulene-7,4′-pyran]-2,2a1(9a)-dien-9(8H)-one]"
